Data reported in patent US12071431B2, “Pyridin-sulfonamide compounds for the treatment of conditions related to interleukin 1 beta” (ALLINKY BIOPHARMA, priority 2018, dated 2024).

Columns and labels:
IL-1β = experiment: In vitro inhibition of IL-1β in human primary macrophages challenged with LPS (ELISA); assay type: cell-based; conditions: Primary macrophage, 2 hours compound pre-treatment, 100 ng/mL LPS, 16 hours, read-out: IC50 (IL-Iβ inhibition)
Procedure: Example 12—In Vitro Inhibition of IL-1β in Human Primary Macrophages Challenged with LPS
5 mL of RPMI media without serum (1:1) was added to a sample of 5 mL of human whole blood in EDTA or sodium citrate and mixed well by inversion. 3 mL of Histopaque-1077 was added to a 15 mL conical centrifuge tube and brought to room temperature. Using a transfer pipette, 10 mL of the blood-RPMI mixture was carefully layered onto the Histopaque-1077 and was centrifuged at 400×g for exactly 30 minutes at room temperature.
After centrifugation, a pasteur pipette was used to aspirate the upper layer to within 0.5 cm of the opaque interface containing the mononuclear cells. The upper layer was discarded. With a Pasteur pipette, the opaque interface was carefully transferred to a clean conical centrifuge tube. 5 mL RPMI was added to the tube and mixed by inversion, followed by centrifugation at 250×g for exactly 10 minutes. The supernatant was aspirated and discarded.
The leukocyte pellet was re-suspended with 5 mL RPMI and mixed gently with a Pasteur pipette, followed by centrifugation at 250×g for exactly 10 minutes. The pellet was washed 3× with PBS and re-suspended in RPMI medium.
2×10^5 PBMCs at a total volume of 200 μL/well were plated into a 96-well plate and incubated for 4 hrs at 37° C. in a CO2 incubator to allow the monocytes to settle, leaving the lymphocytes in suspension. Following incubation, 100 μL were aspirated out of each well to ensure removal of the lymphocyte population.
The monocytes were differentiated to macrophages by addition of 200 ng/mL of recombinant human GM-CSF (4 mg/mL stock) and incubated at 37° C./5% CO2 for 6 days. The medium was changed every two days by removing half the volume of medium in the well and re-supplementing with fresh RPMI complete medium and recombinant human GM-CSF.
Following differentiation, the cells were treated in duplicates with a compound according to the invention in a total volume of 50 μL, maintaining a final DMSO percentile of 0.5%. The plate was transferred to an incubator maintained at 37° C./5% CO2 for 2 hours. The cells were stimulated with 100 ng/mL of LPS (4×) (1 mg/mL stock) in a total volume of 50 μL.
The plate was transferred to an incubator maintained at 37° C./5% CO2 for 16 hours.
• 1. Each well from a pre-coated ELISA plate was aspirated and washed with wash buffer (0.05% Tween 20 in PBS; pH 7.2-7.4) by filling each well with wash buffer (300 μL). The process was repeated two times for a total of three washes. The liquid was removed completely at each step. After the last wash, any remaining wash buffer was removed. • 2. Plates were blocked by adding 300 μL of block buffer (1% BSA in PBS) to each well and incubated at room temperature for 1 hour. • 3. The aspiration/wash as in step 1 was repeated. • 4. 100 μL of sample or standard prepared in reagent diluent (0.1% BSA, 0.05% Tween 20 in PBS pH7.2-7.4) was added. The wells were covered with an adhesive strip and incubated for 2 hours at room temperature. • 5. The aspiration/wash as in step 1 was repeated. • 6. 100 μL of detection antibody, diluted in reagent diluent, was added to each well. The wells were covered with a new adhesive strip and incubated for 2 hours at room temperature. • 7. The aspiration/wash as in step 1 was repeated. • 8. 100 μL of the working dilution (1:200 from the stock) and streptavidin-HRP was added to each well. The plate was covered and incubated for 20 minutes at room temperature. • 9. 100 μL of substrate solution (1:1 mixture of H2O2 and tetramethylbenzidine) was added to each well and incubated for 20 minutes at room temperature. • 10.50 μL of stop solution (2N H2SO4) was added to each well. The plate was tapped gently to ensure thorough mixing. • 11. The optical density of each well was determined immediately using a microplate reader (Spectramax Plus) set to 450 nm. Cytokine Viability Assessment […]

[1] = tested on: human primary macrophages; experiment: Cell viability assessment (CellTiter-Glo) in the macrophage assay plates; assay type: cell-based; parameters: concentration or dose not given beside the values; conditions: CellTiter-Glo luminescent assay
Procedure: 2×10^5 PBMCs at a total volume of 200 μL/well were plated into a 96-well plate and incubated for 4 hrs at 37° C. in a CO2 incubator to allow the monocytes to settle, leaving the lymphocytes in suspension. Following incubation, 100 μL were aspirated out of each well to ensure removal of the lymphocyte population. The monocytes were differentiated to macrophages by addition of 200 ng/mL of recombinant human GM-CSF (4 mg/mL stock) and incubated at 37° C./5% CO2 for 6 days. The medium was changed every two days by removing half the volume of medium in the well and re-supplementing with fresh RPMI complete medium and recombinant human GM-CSF. Following differentiation, the cells were treated in duplicates with a compound according to the invention in a total volume of 50 μL, maintaining a final DMSO percentile of 0.5%. The plate was transferred to an incubator maintained at 37° C./5% CO2 for 2 hours. The cells were stimulated with 100 ng/mL of LPS (4×) (1 mg/mL stock) in a total volume of 50 μL. The plate was transferred to an incubator maintained at 37° C./5% CO2 for 16 hours. 100 μl/well volume of CellTiter-Glo® luminescent reagent was added to the assay plates and incubated at room temperature for 30 mins on a plate shaker. Following incubation, the luminescent signal of each well was determined using a microplate reader (Perkin Elmer ENVISION 2104). Cytotoxicity of the test compounds was determined utilizing the following formula: % Cytotoxicity=100−(100*(Average Test Compound Counts−Average Negative Control Counts)/(Average Positive Control Counts−Average Negative Control Counts)) All of the “Counts” stated in this formula are derived from “luminescent signal” determined as described for the cytokine viability assessment.

[2] = tested on: Non-Alcoholic Steatohepatitis (NASH) in male C57BL/6 mice; experiment: Treatment of non-alcoholic steatohepatitis (NASH) in male C57BL/6 mice (streptozotocin + high-fat diet); assay type: in vivo; conditions: for hepatomegaly and liver to body weight ratio: 28 days of treatment, FIG. 3
Procedure: Example 15: Effect of Compound 5 and 7 in the Treatment of Non-Alcoholic Steatohepatitis (NASH) in Male C57BL/6 Mice
Timed pregnant mice (n=30) were selected for the study. The delivered pups were subcutaneously injected on the post-natal day 2 (PND-2) with 200 μg of Streptozotocin and were allowed to remain with the mother until they reached the weanling age. After weanling, the male pups were selected and fed with 60% kcal fat diet (Research Diet-D12492) for the next 2 weeks. All the animals were observed twice daily for clinical signs.
Mice were dosed with vehicle, test compounds and reference compound (elafibranor) twice daily morning (9.00 AM) and evening before the start of dark cycle (6:00 PM) from day 0 to 28.
Animal body weight measurements were made daily for the complete duration of the experiment.
Animals were dosed for 28 days (from week 6 to 10) with the test and reference compounds.
Blood glucose was estimated before the treatment start and on the termination day 28. Serum ALT and AST levels were measured from the plasma before the treatment start and on day 28.
Histopathology analysis including H&E staining, Masson's trichrome staining and Oil-Red-O (ORO) staining was performed for the liver tissues.
All the H&E stained tissue sections were examined by light microscopy. As per the below grading system (Kleiner et al., 2005) in 200× objective lens, NAFLD scoring was done for steatosis, lobular inflammation and hepatic ballooning.
All the Masson's trichrome stained tissue sections were examined by light microscopy in 100× objective lens. Randomly selected five fields (approx 684.85 μm×917.11 m per field) from each liver were subjected to collagen proportion area measurement by using Image Pro Premier 9.1 software. The percentage of collagen proportion area was calculated by dividing collagen tissue area by total tissue area.
All the Oil-Red-O stained tissue sections were examined by light microscopy in 100× objective lens. Randomly selected five fields (approximately 688.33 μm×922.45 μm per field) from each liver were subjected to measure stained area by using Image Pro Premier 9.1 software. The percentage of stained area was calculated by dividing lipid stained tissue area by total tissue area.

Bleomycin-induced IPF = experiment: Treatment of bleomycin-induced IPF in mice; assay type: in vivo
Source text: Example 16: Effect of Compound 7 in the Treatment of Bleomycin-Induced IPF Timed pregnant mice (n=30) were selected for the study. The delivered pups were subcutaneously injected on the post-natal day 2 (PND-2) with 1.5 U/kg of Bleomycin (intra-tracheal) and were allowed to remain with the mother until they reached the weanling age. After weanling, the male pups were selected and fed with 60% kcal fat diet (Research Diet-D12492) for the next week. All the animals were observed twice daily for clinical signs. Mice were orally dosed with vehicle, test compounds and reference compound (Pirfenidone) twice daily morning (9.00 AM) and evening before the start of dark cycle (6:00 PM) from day 0 to 14. Animal body weight measurements were made daily for the complete duration of the experiment. Animals were dosed for 14 days with the test and reference compounds. Lung hydroxyproline level was estimated before the treatment start and on the termination day 14. Total cell count and differential leukocyte count in BALF were measured before the treatment start and on […]. Histopathology analysis in the form of H&E Ashcroft score was performed for the lung tissues. All the H&E stained tissue sections were examined by light microscopy. As per the below grading system (Kleiner et al., 2005) in 200× objective lens, IPF scoring was carried out. Collagen Proportion Area (% CPA) Measurement: Masson's Trichrome Staining All the Masson's trichrome stained tissue sections were examined by light microscopy in 100× objective lens. Randomly selected five fields (approx 684.85 μm×917.11m per field) from each lung were subjected to collagen proportion area measurement by using Image Pro Premier 9.1 software. The percentage of collagen proportion area was calculated by dividing collagen tissue area by total tissue area.

[3] = 3 mg/kg dose, twice daily, 28 days, H&E NAFLD scoring

**Q.** How did the IC50 (IL-1β) turn out when `CN(C)S(=O)(=O)c1cnc(N2CCC(Oc3ccc(Cl)cc3)CC2)c(Nc2ccc3c(c2)OCO3)c1` [Compound 3] was run?
**A.** 121 nM

**Q.** What about the Cell viability [1] of the same molecule?
**A.** 100%

**Q.** With `Cc1ccc(Oc2cc(S(=O)(=O)N(C)C)cnc2N2CCC(Oc3ccc(C(N)=O)nc3)CC2)cc1` [Compound 10] as the molecule, how does the IC50 (IL-1β) read?
**A.** 410 nM

**Q.** What about the Cell viability [1] of the same molecule?
**A.** 100%

**Q.** How did the IC50 (IL-1β) turn out when `CN(C)S(=O)(=O)c1cnc(N2CCC(Oc3ccc(Cl)cc3)CC2)c(-c2ccc3c(c2)CCO3)c1` [Compound 1] was run?
**A.** 115 nM

**Q.** And the Cell viability [1]?
**A.** 100%

**Q.** `CCCOc1ccc(Nc2cc(S(=O)(=O)N(C)C)cnc2N2CCN(Cc3ccc(Cl)cc3)CC2)cc1` [Compound 4] was tested. Which IC50 (IL-1β) did it give?
**A.** 300 nM

**Q.** What about the Cell viability [1] of the same molecule?
**A.** 100%

**Q.** With `CN(C)S(=O)(=O)c1cnc(N2CCC(Oc3ccc(C(N)=O)nc3)CC2)c(Oc2ccc(OC(F)(F)F)cc2)c1` [Compound 9] as the molecule, how does the IC50 (IL-1β) read?
**A.** 531 nM

**Q.** And the Cell viability [1]?
**A.** 100%

**Q.** Which results are given for `CN(C)S(=O)(=O)c1cnc(N2CCC(Oc3ccc(Cl)cc3)CC2)c(Oc2ccc3c(c2)CCO3)c1` [Compound 5]?
**A.** IC50 (IL-1β): 28 nM; Cell viability [1]: 100%; NAFLD activity score (NAS) ([2]; 3 mg/kg dose, twice daily, 28 days, FIG. 1): significant reduced NAS score than disease controls; hepatic ballooning [2, 3]: trend towards decreased; lobular inflammation in the liver [2, 3]: significantly reduced; steatosis in the liver [2, 3]: trend towards decreased; hepatomegaly and liver to body weight ratio [2]: did not show any hepatomegaly and increase in liver to body weight ratio; Serum AST levels ([2]; after 28 days of treatment, FIG. 2): significantly reduced

**Q.** With `CSc1ccc(C(=O)/C=C/c2cc(C)c(OC(C)(C)C(=O)O)c(C)c2)cc1` [Elafibranor, reference compound] as the molecule, how does the “hepatomegaly and liver to body weight ratio” value [2] read?
**A.** hepatomegaly and increase in liver to body weight ratio

**Q.** How did the BALF macrophage counts (Bleomycin-induced IPF; compared with Bleomycin control, Compound 7 p>0.05, Pirfenidone p<0.05, FIGS. 5A and 5B) turn out when `Cc1ccc(=O)n(-c2ccccc2)c1` [Pirfenidone, reference compound] was run?
**A.** reduced

**Q.** And the “% CPA (Collagen Proportion Area)” value (Bleomycin-induced IPF; lung, Masson's trichrome, in comparison with Bleomycin control, p<0.05, FIG. 6B)?
**A.** significant reduction

**Q.** What about the “fibrosis score (H&E Ashcroft Score)” value (Bleomycin-induced IPF; lung, in comparison with Bleomycin control, p<0.05, FIG. 6A) of the same molecule?
**A.** significant reduction

**Q.** For `CCOc1ccc(Oc2cc(S(C)(=O)=O)cnc2N2CCC(Oc3ccc(Cl)cc3)CC2)cc1` [Compound 11], which IC50 (IL-1β) is on record?
**A.** 753 nM

**Q.** And the Cell viability [1]?
**A.** 100%

**Q.** Which results are given for `CCOc1ccc(Oc2cc(S(=O)(=O)N(C)C)cnc2N2CCC(Oc3ccc(C(N)=O)nc3)CC2)cc1` [Compound 8]?
**A.** IC50 (IL-1β): 337 nM; Cell viability [1]: 100%

**Q.** Which IC50 (IL-1β) does the source give for `CN(C)S(=O)(=O)c1cnc(N2CCC(Oc3ccc(C(N)=O)nc3)CC2)c(Oc2ccc3c(c2)CCO3)c1` [Compound 12] here?
**A.** 2300 nM

**Q.** What about the Cell viability [1] of the same molecule?
**A.** 100%

**Q.** Which IC50 (IL-1β) does the source give for `CN(C)S(=O)(=O)c1cnc(N2CCC(Oc3ccc(Cl)cc3)CC2)c(Nc2ccc3oc(CO)cc3c2)c1` [Compound 6] here?
**A.** 13 nM

**Q.** What about the Cell viability [1] of the same molecule?
**A.** 100%

**Q.** With `CN(C)S(=O)(=O)c1cnc(N2CCC(Oc3ccc(Cl)cc3)CC2)c(Nc2ccc3c(c2)CCO3)c1` [Compound 2] as the molecule, how does the IC50 (IL-1β) read?
**A.** 29 nM

**Q.** And the Cell viability [1]?
**A.** 100%
